Results from PMC4913735, “Non‐glycosidic compounds can stimulate both human and mouse iNKT cells” (European Journal of Immunology, 2016).

Key:
[1] = system: hCD1d C1R cells; assay: Tetrameric human iNKT‐cell TCR staining of lipid‐loaded hCD1d C1R cells (flow cytometry); assay type: cell-based; details: compared with α‐GalCer; overnight incubation
Protocol: Two analogs of ThrCer, ThrCer 6, and ThrCer 7 were synthesized. […] We first carried out measurements to assess the binding affinity of these ThrCer analogs to human iNKT‐cell TCR (Fig. 1B). Recombinant human CD1d (hCD1d) molecules were refolded in vitro with ThrCer 6 and ThrCer 7 separately and coupled to BIAcore chips, over which refolded human iNKT‐cell TCR was injected at different concentrations 34. […]
Figure 1 ThrCer 6 and ThrCer 7 are potent human iNKT‐cell agonists and display a prolonged interaction with the iNKT‐cell TCR when in complex with human CD1d molecules. […] (B) Equilibrium binding and kinetics measurements of a soluble human iNKT‐cell TCR were assessed for hCD1d molecules refolded with α‐GalCer, ThrCer, ThrCer 6, and ThrCer 7. K d values (μM) were calculated from equilibrium binding. […] After incubating overnight, the degree of iNKT‐cell recognition, assessed either (C) by using a tetrameric human iNKT‐cell TCR by flow cytometry or (D) by the addition of human iNKT cells to cultures and determining the amount of IFN‐γ released in supernatant by ELISA. (E) Human DC maturation was assessed following coculture with human iNKT cells and l μg lipids after 40 h, as determined by CD86 upregulation on DC by flow cytometry. […]

[2] = system: human iNKT cells; assay: Human iNKT‐cell activation by lipid‐pulsed hCD1d C1R cells, IFN‐γ ELISA; assay type: cell-based; details: compared with α‐GalCer; particularly below 1 ng/mL
Protocol: To this end, hCD1d‐expressing C1R cells were loaded overnight with serial dilutions of lipids (α‐GalCer, ThrCer, ThrCer 6, and ThrCer 7) and then incubated with human iNKT cells. iNKT‐cell activation was assessed by measuring IFN‐γ production in the supernatant by ELISA.
(§1) Concentrations of murine IFN‐γ and IL‐4 in serum were determined using standard sandwich ELISAs using the R4‐6A2 capture Ab for IFN‐γ (eBioscience), and the ID11 capture Ab for IL‐4 (Endogen). Biotinylated XMG1.2 (eBioscience) was used as the detection Ab for IFN‐γ and biotinylated BVD6‐24G2 (eBioscience) was used as the detection Ab for IL‐4. Human IFN‐γ in supernatants was determined using the capture Ab NIB42 (BD Pharmingen) and biotinylated 4S.B3 (BD Pharmingen) as the detection Ab.
Human iNKT‐cells were expanded as described previously 34. […] The presence of IFN‐γ was detected in supernatants by ELISA 12. […] DC maturation was determined by the upregulation of CD86 by flow cytometry on a FACSCalibur with CellQuest software (BD) and analyzed with FlowJo software (Tree Star). For in vivo murine APC phenotype analysis the expression of CD86 or CD40 on CD11c^+ APCs from spleen were determined after 18 h post i.v. of 1 μg lipids on a CyAn cytometer and analyzed with FlowJo software (Tree Star).

[3] = system: human DC; assay: Human DC maturation (CD86 upregulation) in coculture with human iNKT cells and lipids; assay type: cell-based; details: compared to ThrCer; comparable to α‐GalCer; 40 h
Protocol: Figure 1 ThrCer 6 and ThrCer 7 are potent human iNKT‐cell agonists and display a prolonged interaction with the iNKT‐cell TCR when in complex with human CD1d molecules. (A) The structures of α‐GalCer and non‐glycosidic analogs ThrCer, ThrCer 6, and ThrCer 7 are shown. (B) Equilibrium binding and kinetics measurements of a soluble human iNKT‐cell TCR were assessed for hCD1d molecules refolded with α‐GalCer, ThrCer, ThrCer 6, and ThrCer 7. K d values (μM) were calculated from equilibrium binding. (C and D) iNKT‐cell agonists were added to human CD1d C1R cells at various concentrations. After incubating overnight, the degree of iNKT‐cell recognition, assessed either (C) by using a tetrameric human iNKT‐cell TCR by flow cytometry or (D) by the addition of human iNKT cells to cultures and determining the amount of IFN‐γ released in supernatant by ELISA. (E) Human DC maturation was assessed following coculture with human iNKT cells and l μg lipids after 40 h, as determined by CD86 upregulation on DC by flow cytometry. Median fluorescent intensity = MFI. (D and E) Error bars are mean ± SEM (triplicate wells). […]
To this end, hCD1d‐expressing C1R cells were loaded overnight with serial dilutions of lipids (α‐GalCer, ThrCer, ThrCer 6, and ThrCer 7) and then incubated with human iNKT cells. iNKT‐cell activation was assessed by measuring IFN‐γ production in the supernatant by ELISA. […]

[4] = system: murine iNKT cells; assay: In vivo iNKT‐cell activation in mice: serum IFN‐γ/IL‐4 ELISA and splenic DC maturation; parameters: species or system C57BL/6 mice; details: for DC maturation (CD40 on CD11c+ cells) in iNKT cell deficient mice: CD1d−/− mice
Protocol: Figure 2 Enhanced in vivo potency of ThrCer 6. (A) Equilibrium binding and kinetics measurements of a soluble mouse iNKT‐cell TCR were assessed for mCD1d molecules refolded with α‐GalCer, ThrCer 6 and ThrCer 7. K d values (μM) were calculated from equilibrium binding. (B–D) Mice were immunized with 1 μg lipids i.v. and (B) IL‐4 and (C) IFN‐γ were detected by ELISA in blood sera at either 2 or 18 h, respectively. (D) At 18 h, immunized mice were sacrificed and splenocytes stained with anti‐CD11c and anti‐CD86 antibodies to determine the extent of maturation by the expression of CD86 on gated DCs (CD11c^+) using flow cytometry. (E and F) Mice were immunized i.v. with titrating doses of α‐GalCer, ThrCer, ThrCer 6, and ThrCer 7 and (E) IFN‐γ and (F) IL‐4 were detected in blood sera at 2, 12, and 18 h by ELISA. Median fluorescent intensity = MFI. (B–F) Data are shown as mean ± SEM (n = 3/group) and are representative of two independent experiments (A), three experiments (B–D), or a single experiment (E and F). *p < 0.05; Student's t‐test.
as §1
Lipid compounds were solubilized in 150 mM NaCl and 0.5% Tween 20 (vehicle). All substances were diluted in PBS and administered either i.v., or i.m. Unless stated otherwise, doses used per injection were 400 μg OVA (Sigma) and 100 ng of lipid compounds or vehicle.
Human iNKT‐cells were expanded as described previously 34. For lipid titration studies, hCD1d C1R cells were pulsed with lipids overnight and following washes, cocultured with human iNKT cells. The presence of IFN‐γ was detected in supernatants by ELISA 12. For DC maturation studies, immature DCs were collected on day 4 and pulsed with lipids and iNKT cells 34. DC maturation was determined by the upregulation of CD86 by flow cytometry on a FACSCalibur with CellQuest software (BD) and analyzed with FlowJo software (Tree Star). For in vivo murine APC phenotype analysis the expression of CD86 or CD40 on CD11c^+ APCs from spleen were determined after 18 h post i.v. of 1 μg lipids on a CyAn cytometer and analyzed with FlowJo software (Tree Star).

SMILES	Staining of lipid‐loaded hCD1d C1R cells by tetrameric human iNKT‐cell TCR [1]	Activation of human iNKT cells (IFN‐γ in supernatant) [2]	Human DC maturation (CD86 upregulation) [3]	Ability to activate murine iNKT cells and mature DC in vivo ([4]; 1 μg i.v., serum IL‐4 2 h, IFN‐γ 18 h, CD86 on CD11c+ DC, greater than ThrCer, similar to α‐GalCer)	DC maturation (CD40 on CD11c+ cells) in iNKT cell deficient mice ([4]; 1 μg i.v.)	Serum IFN‐γ secretion after intramuscular injection ([4]; i.m., 18 h post injection, compared with α‐GalCer)	Serum IFN‐γ secretion, in vivo dose titration ([4]; i.v., after 12 and 18 h, compared with α‐GalCer)
CCCCCCCCCCCCCCCCCCCCCCCCCC(=O)N[C@@H](CO[C@H]1CC[C@H](O)[C@H](O)[C@H]1O)[C@H](O)[C@H](O)CCCCCCCCCCCCCC [ThrCer 6]	enhanced staining	greater activation of human iNKT cells	improved ability	marked increase	do not mature DCs	higher	significantly enhanced
CCCCCCCCCCCCCCCCCCCCCCCCCC(=O)NC(COC1CCCC(O)C(O)C1O)C(O)C(O)CCCCCCCCCCCCCC (centres unmarked) [ThrCer 7]	enhanced staining	greater activation of human iNKT cells	improved ability	–	do not mature DCs	–	–
